In article PMC8288134, “Synthesis, potential antitumor activity, cell cycle analysis, and multitarget mechanisms of novel hydrazones incorporating a 4-methylsulfonylbenzene scaffold: a molecular docking study” (Journal of Enzyme Inhibition and Medicinal Chemistry, 2021):
Where two headings read alike, the source gives them in different places.

Assays:
EKVX = tested on: EKVX; set-up: method as in https://dtp.cancer.gov/dtpstandard/dwindex/index.jsp; settings: reference drugs, ref https://dtp.cancer.gov/dtpstandard/dwindex/index.jsp; cited from earlier work
[1] = tested on: ovarian cancer tumour cell lines; settings: cited from earlier work; for GI50: read-out: GI50 (subpanel average), reference drugs, ref https://dtp.cancer.gov/dtpstandard/dwindex/index.jsp; for CC50: read-out: LC50 (subpanel average), reference drugs, ref https://dtp.cancer.gov/dtpstandard/dwindex/index.jsp; for TGI (subpanel average): reference drugs, ref https://dtp.cancer.gov/dtpstandard/dwindex/index.jsp
A549/ATCC = tested on: A549/ATCC; set-up: method as in https://dtp.cancer.gov/dtpstandard/dwindex/index.jsp; settings: reference drugs, ref https://dtp.cancer.gov/dtpstandard/dwindex/index.jsp; cited from earlier work
NCI/ADR-RES = tested on: NCI/ADR-RES; set-up: method as in https://dtp.cancer.gov/dtpstandard/dwindex/index.jsp; settings: reference drugs, ref https://dtp.cancer.gov/dtpstandard/dwindex/index.jsp; cited from earlier work
PC-3 = tested on: PC-3; set-up: method as in https://dtp.cancer.gov/dtpstandard/dwindex/index.jsp; settings: reference drugs, ref https://dtp.cancer.gov/dtpstandard/dwindex/index.jsp; cited from earlier work
SNB-19 = tested on: SNB-19; set-up: method as in https://dtp.cancer.gov/dtpstandard/dwindex/index.jsp; settings: reference drugs, ref https://dtp.cancer.gov/dtpstandard/dwindex/index.jsp; cited from earlier work
LOX IMVI = tested on: LOX IMVI; set-up: method as in https://dtp.cancer.gov/dtpstandard/dwindex/index.jsp; settings: reference drugs, ref https://dtp.cancer.gov/dtpstandard/dwindex/index.jsp; cited from earlier work
[2] = tested on: NSC lung cancer tumour cell lines; settings: cited from earlier work; for GI50: read-out: GI50 (subpanel average), reference drugs, ref https://dtp.cancer.gov/dtpstandard/dwindex/index.jsp; for CC50: read-out: LC50 (subpanel average), reference drugs, ref https://dtp.cancer.gov/dtpstandard/dwindex/index.jsp; for TGI (subpanel average): reference drugs, ref https://dtp.cancer.gov/dtpstandard/dwindex/index.jsp
MDA-MB-231/ATCC = assay: NCI antitumor screen (SRB); assay type: cell-based; settings: Homo sapiens; for inhibition at 10 µM: one dose 10 µM, read-out: Growth inhibition percentage (GI%)
SF-539 = assay: NCI antitumor screen (SRB); assay type: cell-based; settings: Homo sapiens; for inhibition at 10 µM: one dose 10 µM, read-out: Growth inhibition percentage (GI%)
K-562 = assay: NCI antitumor screen (SRB); assay type: cell-based; settings: Homo sapiens
SK-MEL-2 = assay: NCI antitumor screen (SRB); assay type: cell-based; settings: Homo sapiens
SW-620 = assay: NCI antitumor screen (SRB); assay type: cell-based; settings: Homo sapiens; for inhibition at 10 µM: one dose 10 µM, read-out: Growth inhibition percentage (GI%)
CCRF-CEM = assay: NCI antitumor screen (SRB); assay type: cell-based; settings: Homo sapiens; for inhibition at 10 µM: one dose 10 µM, read-out: Growth inhibition percentage (GI%)
MDA-MB-435 = assay: NCI antitumor screen (SRB); assay type: cell-based; settings: Homo sapiens; for inhibition at 10 µM: one dose 10 µM, read-out: Growth inhibition percentage (GI%)
NCI-H226 = assay: NCI antitumor screen (SRB); assay type: cell-based; settings: Homo sapiens; for inhibition at 10 µM: one dose 10 µM, read-out: Growth inhibition percentage (GI%)
NCI-H322M = assay: NCI antitumor screen (SRB); assay type: cell-based; settings: Homo sapiens; for inhibition at 10 µM: read-out: Growth inhibition percentage (GI%)
TK-10 = assay: NCI antitumor screen (SRB); assay type: cell-based; settings: Homo sapiens, one dose 10 µM, read-out: Growth inhibition percentage (GI%)
MDA-MB-468 = assay: NCI antitumor screen (SRB); assay type: cell-based; settings: Homo sapiens; for inhibition at 10 µM: one dose 10 µM, read-out: Growth inhibition percentage (GI%)
EGFR = EGFR (Homo sapiens, UniProt P00533); assay: biochemical; settings: read-out: IC50 EGFR Inhibition
Sequence of EGFR (P00533 25-1210): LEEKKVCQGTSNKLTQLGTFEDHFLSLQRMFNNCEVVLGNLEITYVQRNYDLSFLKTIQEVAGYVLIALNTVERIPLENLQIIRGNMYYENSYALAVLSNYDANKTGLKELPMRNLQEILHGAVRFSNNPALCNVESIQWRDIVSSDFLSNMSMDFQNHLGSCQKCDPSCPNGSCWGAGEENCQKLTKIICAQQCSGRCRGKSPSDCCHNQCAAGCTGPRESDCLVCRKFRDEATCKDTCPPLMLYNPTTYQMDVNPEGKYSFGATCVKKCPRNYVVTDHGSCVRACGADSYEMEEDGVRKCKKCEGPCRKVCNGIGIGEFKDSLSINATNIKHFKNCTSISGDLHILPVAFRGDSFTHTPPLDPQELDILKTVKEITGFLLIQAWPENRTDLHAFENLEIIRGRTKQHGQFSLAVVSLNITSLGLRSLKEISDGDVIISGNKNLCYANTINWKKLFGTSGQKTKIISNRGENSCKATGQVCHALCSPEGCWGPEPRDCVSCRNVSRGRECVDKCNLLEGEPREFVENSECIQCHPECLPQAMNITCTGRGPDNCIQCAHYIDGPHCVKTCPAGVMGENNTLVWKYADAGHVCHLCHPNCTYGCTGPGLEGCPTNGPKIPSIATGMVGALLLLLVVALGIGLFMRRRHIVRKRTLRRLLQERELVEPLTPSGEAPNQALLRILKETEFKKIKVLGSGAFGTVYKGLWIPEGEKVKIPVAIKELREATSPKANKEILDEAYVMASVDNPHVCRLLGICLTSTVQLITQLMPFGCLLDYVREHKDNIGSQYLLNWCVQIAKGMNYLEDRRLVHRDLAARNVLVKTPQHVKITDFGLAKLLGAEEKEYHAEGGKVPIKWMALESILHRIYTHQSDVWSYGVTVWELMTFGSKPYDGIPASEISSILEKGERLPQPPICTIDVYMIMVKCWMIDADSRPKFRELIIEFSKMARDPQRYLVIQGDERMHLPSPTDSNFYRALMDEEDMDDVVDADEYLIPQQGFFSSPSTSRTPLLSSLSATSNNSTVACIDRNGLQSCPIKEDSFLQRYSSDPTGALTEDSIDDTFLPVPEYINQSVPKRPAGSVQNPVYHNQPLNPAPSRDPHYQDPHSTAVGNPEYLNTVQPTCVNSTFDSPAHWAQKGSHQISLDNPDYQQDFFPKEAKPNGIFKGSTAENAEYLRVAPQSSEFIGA
Description: (§1) In vitro luminescent EGFR tyrosine kinase assay using Kinase-Glo® MAX as a detection reagent, and In vitro HER2 tyrosine kinase assay using DP‐Glo™ reagent that measures ADP formed from a kinase reaction, this luminescent signal positively correlates with ADP amount and kinase activity. […]
(§2) 2.1.5. EGFR and Her2 assays
(§3) In vitro luminescent EGFR tyrosine kinase assay, using Kinase-Glo® MAX as a detection reagent, and In vitro HER2 tyrosine kinase assay, using DP‐Glo™ reagent that measures the adenosine diphosphate (ADP) formed from a kinase reaction, were performed; this luminescent signal positively correlates with ADP amount and kinase activity. In 17 μl of distilled water, 6 μl of Kinase assay buffer and 1 μl ATP and 1 μl PTK substrate were mixed (master mixture). In every well, mix 20 μl of the master mixture and 5 μl of Inhibitor solution (Test Inhibitor) for positive control, and use 5 μl of the same solution without inhibitor (Inhibitor buffer) as the blank solution; add 20 μl of diluted EGFR or Her2 enzyme and incubate at 30°C for 40 min. Add 50 μl of Kinase-Glo Max reagent to each well, cover the plate with aluminum foil and incubate the plate at room temperature for 15 min. Afterward, measure luminescence using the microplate reader. “Blank” value is subtracted from all readings. […]

HER2 = HER2 (Homo sapiens, UniProt P04626); assay: biochemical; settings: read-out: IC50 HER2 Inhibition
Sequence of HER2 (P04626 23-1255): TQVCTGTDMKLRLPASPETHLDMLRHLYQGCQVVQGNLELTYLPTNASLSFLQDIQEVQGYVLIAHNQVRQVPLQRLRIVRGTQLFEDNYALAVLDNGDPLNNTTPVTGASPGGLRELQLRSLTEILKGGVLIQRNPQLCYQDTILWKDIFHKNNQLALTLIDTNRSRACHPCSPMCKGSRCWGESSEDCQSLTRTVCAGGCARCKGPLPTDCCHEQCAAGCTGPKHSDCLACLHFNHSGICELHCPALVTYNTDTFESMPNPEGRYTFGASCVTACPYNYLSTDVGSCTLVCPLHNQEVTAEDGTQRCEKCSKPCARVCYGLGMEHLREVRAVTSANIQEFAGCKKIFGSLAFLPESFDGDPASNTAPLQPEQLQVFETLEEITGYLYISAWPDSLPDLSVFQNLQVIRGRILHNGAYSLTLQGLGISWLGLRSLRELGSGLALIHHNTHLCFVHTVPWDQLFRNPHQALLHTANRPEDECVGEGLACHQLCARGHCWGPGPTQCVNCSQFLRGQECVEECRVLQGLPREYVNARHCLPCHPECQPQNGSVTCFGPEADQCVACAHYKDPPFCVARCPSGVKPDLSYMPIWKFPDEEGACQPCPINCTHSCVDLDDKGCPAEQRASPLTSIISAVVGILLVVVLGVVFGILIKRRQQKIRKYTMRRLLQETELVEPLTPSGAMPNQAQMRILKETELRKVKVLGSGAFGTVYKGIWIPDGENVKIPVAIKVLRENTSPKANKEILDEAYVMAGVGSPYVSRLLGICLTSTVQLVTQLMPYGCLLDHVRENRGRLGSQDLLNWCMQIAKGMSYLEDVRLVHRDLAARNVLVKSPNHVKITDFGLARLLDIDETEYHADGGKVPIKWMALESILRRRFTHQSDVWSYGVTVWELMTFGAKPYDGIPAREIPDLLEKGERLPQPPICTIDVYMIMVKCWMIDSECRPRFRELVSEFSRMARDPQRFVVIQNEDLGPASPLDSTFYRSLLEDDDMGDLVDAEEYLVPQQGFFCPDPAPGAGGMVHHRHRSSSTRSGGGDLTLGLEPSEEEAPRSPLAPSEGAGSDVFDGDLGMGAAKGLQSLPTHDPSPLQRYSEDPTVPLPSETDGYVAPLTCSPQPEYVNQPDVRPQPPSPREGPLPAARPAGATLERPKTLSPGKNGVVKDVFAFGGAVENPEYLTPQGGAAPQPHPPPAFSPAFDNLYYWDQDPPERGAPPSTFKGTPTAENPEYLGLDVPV
Description: as §1, §2, §3

COX-2 = target: T1, COX-2 (Ovis aries, UniProt P79208); assay: biochemical; settings: mean of three determinations; read-out: IC50 COX-2 Inhibition
T1 construct: purchased Cayman Chemical 560101
T1 sequence (P79208 17-603): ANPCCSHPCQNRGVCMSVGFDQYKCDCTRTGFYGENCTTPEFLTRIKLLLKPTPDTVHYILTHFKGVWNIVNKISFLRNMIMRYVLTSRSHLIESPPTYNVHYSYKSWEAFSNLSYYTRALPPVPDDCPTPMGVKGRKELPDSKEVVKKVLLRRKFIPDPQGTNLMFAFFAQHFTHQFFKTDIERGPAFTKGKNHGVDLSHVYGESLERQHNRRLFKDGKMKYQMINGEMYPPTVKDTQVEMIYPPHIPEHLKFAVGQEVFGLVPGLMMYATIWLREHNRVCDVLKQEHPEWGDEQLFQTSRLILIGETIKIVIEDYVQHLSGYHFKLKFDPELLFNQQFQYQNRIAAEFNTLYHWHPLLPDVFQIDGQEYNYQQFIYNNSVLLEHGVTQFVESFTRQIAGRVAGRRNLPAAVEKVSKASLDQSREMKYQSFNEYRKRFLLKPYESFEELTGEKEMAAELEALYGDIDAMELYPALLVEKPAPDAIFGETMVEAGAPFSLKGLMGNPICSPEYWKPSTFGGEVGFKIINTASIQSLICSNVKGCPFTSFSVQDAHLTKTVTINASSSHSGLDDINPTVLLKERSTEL
Procedure: had been previously attached to the well. The plate was washed to remove any unbound reagents, and then Ellman’s reagent, containing the substrate of acetylcholine esterase, was added to the well. This enzymatic reaction produced a distinct yellow color that was absorbed in 410 nm. The intensity of the color, determined spectrophotometrically, was proportional to the amount of PG tracer bound to the well, which was inversely proportional to PGs present in the well during the incubation: Absorbance ∝ [Bound PG Tracer] a1/PGs. Percent inhibition was calculated by comparing the treated compound to various control incubations. The test compound […]
inhibition response curve (duplicate determinations). […]

HOP-92 = tested on: HOP-92; set-up: method as in https://dtp.cancer.gov/dtpstandard/dwindex/index.jsp; settings: reference drugs, ref https://dtp.cancer.gov/dtpstandard/dwindex/index.jsp; cited from earlier work
[3] = K562, K-562, one dose 10 µM, read-out: Growth inhibition percentage (GI%)
[4] = SK-MEL-2, one dose 10 µM, read-out: Growth inhibition percentage (GI%)
[5] = K562, read-out: Growth inhibition percentage (GI%)
[6] = SK-MEL-2, read-out: Growth inhibition percentage (GI%)
[7] = five concentrations 0.01-100 µM

Row | Structure (SMILES) | GI50 (EKVX) [µM] | GI50 [1] [µM] | CC50 [1] [µM] | TGI (subpanel average) [1] [µM] | GI50 (A549/ATCC) [µM] | GI50 (NCI/ADR-RES) [µM] | GI50 (PC-3) [µM] | GI50 (SNB-19) [µM] | GI50 (LOX IMVI) [µM] | GI50 [2] [µM] | CC50 [2] [µM] | TGI (subpanel average) [2] [µM] | inhibition at 10 µM (MDA-MB-231/ATCC) [%] | inhibition at 10 µM (SF-539) [%] | inhibition at 10 µM (SW-620) [%] | inhibition at 10 µM (CCRF-CEM) [%] | inhibition at 10 µM (MDA-MB-435) [%] | inhibition at 10 µM (NCI-H226) [%] | inhibition at 10 µM (NCI-H322M; one dose 10 µM) [%] | inhibition at 10 µM (TK-10) [%] | other results
1 | Cc1ccc(-c2cc(C(F)(F)F)nn2-c2ccc(S(N)(=O)=O)cc2)cc1 [Celecoxib, celecoxib] | 19.9 | 17.1 | 65.9 | 34.20 | 15.8 | 15.8 | 12.6 | 19.9 | 19.9 | 25.1 | 67.1 | 41.93 |  |  |  |  |  |  |  |  | 
2 | O=c1[nH]cc(F)c(=O)[nH]1 [Compound 5-Fu, 5-fluorouracil, reference compound] |  | 5.17 | 92.9 | 38.36 |  |  |  |  |  | 13.6 | > 100 | 80.45 | 21.9 | > 100 | 49.9 | 42.9 | 63.4 | 30.5 | 40.5 | 33.1 | inhibition at 10 µM (K-562; [3]): 57.7%; inhibition at 10 µM (SK-MEL-2; [4]): < 10%
3 | CS(=O)(=O)c1ccc(C(=O)NN=Cc2cccc3ccccc23)cc1 [Compound 6, 4-(Methylsulfonyl)-N'-(naphthalen-1-ylmethylene)benzohydrazide] |  |  |  |  |  |  |  |  |  |  |  |  | < 10 | 10.7 | 63.8 | 22.4 | 82.9 | 16.3 | < 10 | 14.9 | inhibition at 10 µM (MDA-MB-468): 25.8%; inhibition at 10 µM (K-562; [5]): 72.2%; inhibition at 10 µM (SK-MEL-2; [6]): 52.3%; IC50 (EGFR): 0.26 ± 0.09 µM; IC50 (HER2): 0.35 ± 0.01 µM; IC50 (COX-2): 36.3 ± 2.55 µM
4 | Cc1ccc(C=NNC(=O)c2ccc(S(C)(=O)=O)cc2)cc1 [Compound 9, N'-(4-Methylbenzylidene)-4-(methylsulfonyl)benzohydrazide] |  |  |  |  |  |  |  |  |  |  |  |  | < 10 | < 10 | 15.2 | 20.8 | 47.5 | < 10 | < 10 | < 10 | inhibition at 10 µM (MDA-MB-468): 21.5%; inhibition at 10 µM (K-562; [5]): 44.1%; inhibition at 10 µM (SK-MEL-2; [6]): 19.8%; IC50 (EGFR): 0.77 ± 0.03 µM; IC50 (HER2): 0.41 ± 0.01 µM; IC50 (COX-2): 2.97 ± 0.07 µM
5 | CS(=O)(=O)c1ccc(C(=O)N/N=C/c2ccccc2O)cc1 [Compound 16] |  |  |  |  |  |  |  |  |  |  |  |  | 52.6 | 44.7 | 56.7 | 84.7 | 40.3 | 44.8 |  | 54.2 | inhibition at 10 µM (MDA-MB-468): 35.3%; inhibition at 10 µM (K-562; [5]): 59.5%; inhibition at 10 µM (SK-MEL-2; [6]): 60%; IC50 (EGFR): 0.2 ± 0.07 µM; IC50 (HER2): 0.13 ± 0.04 µM; inhibition at 10 µM (NCI-H322M): 61.6%; IC50 (COX-2): 82.4 ± 3.61 µM
6 | CCN(CC)c1ccc(/C=N/NC(=O)c2ccc(S(C)(=O)=O)cc2)c(O)c1 [Compound 20] |  |  |  |  |  |  |  |  |  |  |  |  | 56.8 | 96 | 67 | 93.1 | 62.8 | 77.4 | 75 | 69.5 | GI50 (MDA-MB-468; [7]): 0.203 µM; inhibition at 10 µM (MDA-MB-468): 98.8%; GI50 (MDA-MB-231/ATCC; [7]): 0.308 µM; GI50 (SF-539; [7]): 0.244 µM; GI50 (K-562; K562, K-562, five concentrations 0.01-100 µM): 0.604 µM; inhibition at 10 µM (K-562; [3]): 87.6%; GI50 (SK-MEL-2; SK-MEL-2, five concentrations 0.01-100 µM): 0.307 µM; inhibition at 10 µM (SK-MEL-2; [4]): 80.5%; IC50 (EGFR): 0.19 ± 0.01 µM; IC50 (HER2): 0.07 ± 0.02 µM; GI50 (SW-620; [7]): 0.387 µM; GI50 (CCRF-CEM; [7]): 0.078 µM; GI50 (MDA-MB-435; [7]): 0.623 µM; GI50 (NCI-H226; [7]): 0.073 µM; GI50 (NCI-H322M; [7]): 0.228 µM; IC50 (COX-2): 6.94 ± 0.41 µM
7 | C#Cc1cccc(Nc2ncnc3cc(OCCOC)c(OCCOC)cc23)c1 [Erlotinib, erlotinib] | 0.199 | 5.52 | 97.1 | 74.41 | 10 | 7.94 | 39.8 | 12.6 | 6.31 | 13.1 | 97.7 | 73.76 |  |  |  |  |  |  |  |  | GI50 (HOP-92): 3.98 µM
8 | COc1cc2ncnc(Nc3ccc(F)c(Cl)c3)c2cc1OCCCN1CCOCC1 [Gefitinib, gefitinib] |  | 3.05 |  | 33.29 | 2.51 | 1.26 |  | 3.16 | 3.16 | 2.05 |  | 13.86 |  |  |  |  |  |  |  |  | GI50 (HOP-92): 0.316 µM
9 | CNC(=O)c1cc(Oc2ccc(NC(=O)Nc3ccc(Cl)c(C(F)(F)F)c3)cc2)ccn1 [Sorafenib, sorafenib] | 2.51 | 2.89 | 71.3 | 14.43 | 3.16 | 2.51 | 1.99 | 3.16 |  |  | 49.1 | 7.99 |  |  |  |  |  |  |  |  | 
10 | CS(=O)(=O)c1ccc(C(=O)Nc2ccc(Cl)c(-c3ccccn3)c2)c(Cl)c1 [Vismodegib, vismodegib] | 39.8 |  |  |  | 39.8 | 31.6 | 25.1 | 63.1 | 39.8 |  |  |  |  |  |  |  |  |  |  |  | GI50 (HOP-92): 25.1 µM
